# Legend:
# [1] = target: nsp14-nsp10 protein complex (Severe acute respiratory syndrome coronavirus 2, UniProt P0DTD1); test: nsp14 ExoN activity assay with nsp14-nsp10 complex (gel-based, 32P-labelled H4 RNA); assay type: biochemical, SARS-CoV-2
# Method: (§1) Both RNAs were labelled at their 5' end with [^32P]-γ-ATP and T4 Polynucleotide Kinase (Ambion) in a standard reaction. MicroSpin G-50 columns (Cytiva) were used to remove excess [^32P]-γ-ATP. The synthetic RNAs were resuspended in 10 mM of Tris-HCI pH 8.0 and incubated 10 min at 80°C followed by 45 min at 37°C. • Different concentrations (µM) of rimegepant were incubated with 300 nM of nsp15 or with 40 nM-160 nM of nsp14-nsp10 proteins (7 minutes at room temperature), before initiating the in vitro assay through the addition of the P^32-RNA substrate (50 nM). The activity assays were performed in a final volume of 12 µl containing the activity buffer 50 mM HEPES pH 7.4, 1 mM DTT, 5 mM MgCl2 in case of nsp14-nsp10 complex, and 25 mM HEPES pH 7.4, 50 mM NaCl, 1 mM DTT, 10 mM NaHPO4, 5 mM MnCl2 for nsp15. The reactions were incubated at 37°C, and then aliquots of 4 µl were withdrawn at the time-points indicated in the respective images. […] All the experiments were performed at least in triplicate. • Inhibition profile curves were calculated by quantification of gel-based RNase assays. […] The inhibitory effect of rimegepant on SARS-CoV-2 multiplication in Vero E6 cells was evaluated. […] In addition, the viability of cells in culture was assessed by measuring intracellular ATP levels, using a luminescent assay as described above (CellTiter-Glo® Luminescent Cell Viability Assay). […]
# SARS-CoV-2 nsp15 = SARS-CoV-2 nsp15 (Severe acute respiratory syndrome coronavirus 2, UniProt P0DTD1); test: nsp15 endoribonuclease activity assay (gel-based, 32P-labelled 16-mer RNA); assay type: biochemical
# Method: as §1
# CGRP receptor = target: T1, CGRP receptor (Homo sapiens, UniProt O60894+Q16602); conditions: orally disintegrating tablet; cited from earlier work
# T1 construct: host or cells: human patients (clinical use)
# T1 sequence (Q16602 23-461): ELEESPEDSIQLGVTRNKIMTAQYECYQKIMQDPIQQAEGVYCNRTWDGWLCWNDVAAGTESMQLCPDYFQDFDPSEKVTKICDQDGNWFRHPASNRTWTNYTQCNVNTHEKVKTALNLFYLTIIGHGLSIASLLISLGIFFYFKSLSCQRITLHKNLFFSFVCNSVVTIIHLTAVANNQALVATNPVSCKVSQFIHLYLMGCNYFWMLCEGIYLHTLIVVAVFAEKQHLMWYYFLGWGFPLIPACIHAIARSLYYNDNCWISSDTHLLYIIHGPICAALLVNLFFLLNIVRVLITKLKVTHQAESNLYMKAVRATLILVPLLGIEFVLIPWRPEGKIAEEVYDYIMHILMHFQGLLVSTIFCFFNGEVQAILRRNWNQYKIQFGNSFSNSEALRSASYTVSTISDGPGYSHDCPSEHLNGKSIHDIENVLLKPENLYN
# T1 sequence (O60894 27-148): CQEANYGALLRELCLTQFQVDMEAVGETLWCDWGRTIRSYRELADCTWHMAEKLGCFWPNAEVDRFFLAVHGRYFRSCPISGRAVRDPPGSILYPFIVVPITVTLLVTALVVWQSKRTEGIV
# [2] = cited from earlier work
# SARS-CoV-2 = assay type: cell-based
# [3] = cited from earlier work; remark: listed apart in the source
compound,measurement,setting,value
"N[C@@H]1c2cccnc2[C@H](OC(=O)N2CCC(n3c(=O)[nH]c4ncccc43)CC2)CC[C@H]1c1cccc(F)c1F [rimegepant, Rimegepant]",IC50,[1],1700 µM
same,IC50,SARS-CoV-2 nsp15,98.95 ± 0.28 µM
same,duration of effect after a single dose,CGRP receptor,up to 48 h
same,maximum tolerated dose (MTD),[2]; Phase I clinical trials,not found
same,well tolerated multiple doses,"[2]; for 14 days, without significant adverse events (Tong et al 2013)",up to 600 mg
same,well tolerated single doses,"[2]; healthy subjects, compared to placebo (Tong et al 2013)",up to 1500 mg
same,duration of antiviral effect,SARS-CoV-2; 175 µM of rimegepant,72 h
same,rescue of Vero E6 cells infected with SARS-CoV-2,"SARS-CoV-2; 175 µM, ATP levels",totally rescue the cells from the infection
same,plasma concentrations achieved relative to those at 75 mg,"[3]; Phase I, without finding a maximum tolerated dose",50 times
same,administered dose eliminated unchanged,[3]; in vivo,Approximately 77%
same,bioavailability,[3]; in vivo,64%
same,elimination half-life,[3]; in vivo,approximately 11 h
same,"major metabolites (i.e., > 10%) in plasma",[3]; in vivo,no major metabolites
same,Cmax (maximum serum concentrations),"[3]; near the low predicted therapeutic dose of 75 mg, Phase I",0.784 µg/mL
same,Tmax (maximum plasma concentrations achieved at),[3]; oral administration of the orally disintegrating tablet,1.5 h

# From patent EP4151214A1, “RIMEGEPANT FOR TREATMENT OF HUMAN CORONAVIRUS INFECTION” (priority 2021, dated 2023)
